This is an account of results in patent publication US11566007B2, “Ras inhibitors” (Revolution Medicines, Inc., priority 2019, dated 2023).

The target in one test is KRAS G12S (Homo sapiens (Human), UniProt P01116+P62937, G12S). Put plainly: Ras-Raf (BRAF RBD) disruption / FRET / MOA assay, KRAS G12S. To be noted: Ras-Raf disruption/FRET/MOA assay; class symbols; read-out: KRAS G12S FRET data IC50. It is filed as biochemical. The procedure, abridged: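 Compounds, top final concentration 30 μM in 10-point 3-fold series, incubated 3 hours at 25° C with nucleotide-loaded Ras, cyclophilin A and BRAF RBD.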
Chain of KRAS G12S (P01116-2 other isoform, or with tags, fused parts or gaps G12S): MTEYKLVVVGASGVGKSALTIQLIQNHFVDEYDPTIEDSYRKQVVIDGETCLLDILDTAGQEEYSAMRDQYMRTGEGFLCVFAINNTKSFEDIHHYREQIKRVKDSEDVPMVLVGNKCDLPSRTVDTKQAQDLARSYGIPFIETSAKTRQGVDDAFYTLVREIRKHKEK
Chain of KRAS G12S (P62937 whole entry): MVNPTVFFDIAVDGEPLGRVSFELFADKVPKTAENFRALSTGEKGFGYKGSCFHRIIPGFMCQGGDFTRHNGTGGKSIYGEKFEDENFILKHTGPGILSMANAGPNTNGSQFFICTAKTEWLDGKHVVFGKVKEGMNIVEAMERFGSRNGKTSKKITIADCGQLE

A further test has as its system NCI-H358 (K-Ras G12C). Put plainly: CellTiter-Glo cell viability assay, NCI-H358. Type of test: cell-based, human. To be noted: Homo sapiens, NCI-H358, 120 h, NCI-H358, 5-day treatment; class symbols; read-out: Additional H358 Cell Viability assay data (K-Ras G12C, IC50). In outline:
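Steps: compound dispensed into wells holding cells; incubation to day 5; ~30 min room-temperature equilibration; luminescence read; sample signal divided by mean DMSO signal, times 100; four-parameter logistic curve fit.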
(In ATP-based viability assays light output follows the ATP content of the culture.)

With `C=CC(=O)N1CCC[C@@H]2CN(C(=O)N(C)[C@H](C(=O)N[C@H]3Cc4nc(cs4)-c4ccc5c(c4)c(c(-c4cccnc4[C@H](C)OC)n5CC)CC(C)(C)COC(=O)[C@@H]4CCCN(N4)C3=O)C(C)C)C[C@@H]21` (atropisomer, axis not shown) [Example A619], the IC50 at KRAS G12S was 1 to 10 µM; with NCI-H358 (K-Ras G12C), 0.01 to 0.1 µM.
In the same order, the values of `C=CC(=O)N1CC2(CCN(C(=O)N(C)[C@H](C(=O)N[C@H]3Cc4nc(cs4)-c4ccc5c(c4)c(c(-c4cccnc4[C@H](C)OC)n5CC)CC(C)(C)COC(=O)[C@@H]4CCCN(N4)C3=O)C(C)C)CC2)C1` (atropisomer, axis not shown) [Example A394] are 0.1 to 1 µM and less than 0.01 µM.
In the same order, the values of `C=CC(=O)N1CC(OC[C@H](C(=O)N[C@H]2Cc3cc(cc(C(F)F)c3)-c3ccc4c(c3)c(c(-c3cccnc3[C@H](C)OC)n4CC)CC(C)(C)COC(=O)[C@@H]3CCCN(N3)C2=O)C(C)C)C1` (atropisomer, axis not shown) [Example A345] are more than 10 µM and 0.1 to 1 µM.
In the same order, the values of `CCn1c(-c2cccnc2[C@H](C)OC)c2c3cc(ccc31)N1CCC[C@@H](C[C@H](NC(=O)[C@@H](COC3CN(C(=O)C#CC(C)(C)N(C)C)C3)C(C)C)C(=O)N3CCC[C@H](N3)C(=O)OCC(C)(C)C2)C1` (atropisomer, axis not shown) [Example A715, (2R)-2-(((1-(4-(dimethylamino)-4-methylpent-2-ynoyl)azetidin-3-yl)oxy)methyl)-N-((2^3S,6^3S,4S)-1^1-ethyl-1^2-(2-((S)-1-methoxyethyl)pyridin-3-yl)-10,10-dimethyl-5,7-dioxo-6^1,6^2,6^3,6^4,6^5,6^6-hexahydro-1^1H-8-oxa-1(5,3)-indola-6(1,3)-pyridazina-2(1,3)-piperidinacycloundecaphane-4-yl)-3-methylbutanamide] are more than 10 µM and 0.01 to 0.1 µM.
`C=CC(=O)N1CC2(COCCN2C(=O)N(C)[C@H](C(=O)N[C@H]2Cc3nc(cs3)-c3ccc4c(c3)c(c(-c3cccnc3[C@H](C)OC)n4CC)CC(C)(C)COC(=O)[C@@H]3CCCN(N3)C2=O)C(C)C)C1` (atropisomer, axis not shown) [Example A352]: the results for the IC50 on KRAS G12S and with NCI-H358 (K-Ras G12C) were more than 10 µM and less than 0.01 µM, respectively.
In the same order, the values of `CO[C@@H](C)c1ncccc1-c1c2c3cc(ccc3n1CC(F)(F)F)-c1nc(co1)C[C@H](NC(=O)[C@@H](COC1CN(C(=O)C#CC(C)(C)N(C)C)C1)C(C)C)C(=O)N1CCC[C@H](N1)C(=O)OCC(C)(C)C2` (atropisomer, axis not shown) [Example A674] are more than 10 µM and less than 0.01 µM.
In the same order, the values of `C=CC(=O)N1CC[C@H](C(=O)N(C)[C@H](C(=O)N[C@H]2Cc3cc(C)cc(c3)-c3ccc4c(c3)c(c(-c3cccnc3[C@H](C)OC)n4CC)CC(C)(C)COC(=O)[C@@H]3CCCN(N3)C2=O)C(C)C)C1` (atropisomer, axis not shown) [Example A498] are 1 to 10 µM and 0.01 to 0.1 µM.

By IC50 is commonly meant the concentration at which inhibition is half-maximal.
